{"source": "ChEMBL document CHEMBL5113482", "about": "“Discovery of fused benzimidazole-imidazole autophagic flux inhibitors for treatment of triple-negative breast cancer” (Eur J Med Chem, 2022)", "key": {"SCC-25": {"tested_on": "SCC-25", "experiment": "Antiproliferative activity against human SCC-25 cells assessed as cell growth inhibition measured after 48 hrs by MTT assay", "format": "functional, cell-based", "details": "SCC-25, 48 h"}, "HCT-116": {"tested_on": "HCT-116", "experiment": "Antiproliferative activity against human HCT-116 cells assessed as cell growth inhibition measured after 48 hrs by MTT assay", "format": "functional, cell-based", "details": "HCT-116, 48 h"}, "U-251": {"tested_on": "U-251", "experiment": "Antiproliferative activity against human U-251 cells assessed as cell growth inhibition measured after 48 hrs by MTT assay", "format": "functional, cell-based", "details": "U-251, 48 h"}, "MDA-MB-231 [1]": {"tested_on": "MDA-MB-231", "experiment": "Antiproliferative activity against human MDA-MB-231 cells assessed as reduction in Ki67 expression measured after 48 hrs by immunofluorescence analysis", "format": "functional, cell-based"}, "MDA-MB-468 [2]": {"tested_on": "MDA-MB-468", "experiment": "Inhibition of autophagy in human MDA-MB-468 cells assessed as increase in p62 expression at 5 to 20 uM measured after 48 hrs by Western blot analysis", "format": "functional, cell-based", "details": "dose 5-20 µM, DDE = dose-dependent effect"}, "MDA-MB-231 [3]": {"tested_on": "MDA-MB-231", "experiment": "Induction of DNA damage in human MDA-MB-231 cells assessed as increase in gamma-H2AX accumulation measured after 48 hrs by immunofluorescence analysis", "format": "functional, cell-based"}, "[4]": {"biological_target": "T1, Structural maintenance of chromosomes protein 1A (Homo sapiens) (UniProt Q14683)", "T1 sequence (whole entry)": "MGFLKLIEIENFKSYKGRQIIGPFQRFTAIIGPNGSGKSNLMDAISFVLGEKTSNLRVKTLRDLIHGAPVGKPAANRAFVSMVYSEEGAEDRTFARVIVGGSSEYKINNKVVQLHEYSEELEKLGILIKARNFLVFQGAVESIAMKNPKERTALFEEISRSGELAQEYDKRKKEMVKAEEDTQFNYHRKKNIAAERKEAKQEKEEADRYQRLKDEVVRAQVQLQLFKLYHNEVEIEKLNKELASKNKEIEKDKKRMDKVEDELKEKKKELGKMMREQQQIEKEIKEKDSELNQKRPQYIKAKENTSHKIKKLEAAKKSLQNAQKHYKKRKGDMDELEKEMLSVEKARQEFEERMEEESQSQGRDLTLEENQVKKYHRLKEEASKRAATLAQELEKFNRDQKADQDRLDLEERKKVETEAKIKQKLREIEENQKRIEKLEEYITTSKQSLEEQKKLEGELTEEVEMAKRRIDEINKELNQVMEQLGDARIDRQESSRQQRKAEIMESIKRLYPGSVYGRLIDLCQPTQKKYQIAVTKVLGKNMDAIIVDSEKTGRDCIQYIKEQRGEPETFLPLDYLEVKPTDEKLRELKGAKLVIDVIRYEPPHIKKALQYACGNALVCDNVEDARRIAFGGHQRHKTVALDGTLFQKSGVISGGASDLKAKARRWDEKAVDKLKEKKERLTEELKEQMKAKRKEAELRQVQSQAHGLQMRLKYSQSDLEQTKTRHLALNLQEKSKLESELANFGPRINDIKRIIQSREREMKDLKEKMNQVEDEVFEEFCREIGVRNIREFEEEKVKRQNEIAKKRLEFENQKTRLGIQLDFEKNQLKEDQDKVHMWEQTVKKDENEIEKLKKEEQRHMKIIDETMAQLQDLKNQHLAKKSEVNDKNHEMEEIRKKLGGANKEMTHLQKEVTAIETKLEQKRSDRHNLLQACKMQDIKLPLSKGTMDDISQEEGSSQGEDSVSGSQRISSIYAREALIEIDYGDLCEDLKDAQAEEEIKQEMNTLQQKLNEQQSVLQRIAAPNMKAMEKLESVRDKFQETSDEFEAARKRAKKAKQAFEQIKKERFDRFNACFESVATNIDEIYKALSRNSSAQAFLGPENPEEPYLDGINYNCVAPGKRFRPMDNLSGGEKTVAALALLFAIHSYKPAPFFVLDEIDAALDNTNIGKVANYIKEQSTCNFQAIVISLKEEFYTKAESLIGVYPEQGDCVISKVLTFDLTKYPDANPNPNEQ", "experiment": "Activation of SMC1 phosphorylation in human MDA-MB-231 cells at 5 to 20 uM measured after 6 to 48 hrs by Western blot analysis", "format": "cell-based", "details": "filed as activator, dose 5-20 µM, time 6-48 hrs"}, "MDA-MB-231 [5]": {"tested_on": "MDA-MB-231", "experiment": "Induction of DNA damage in human MDA-MB-231 cells assessed as reduction in BRCA2 expression measured after 6 to 48 hrs by Western blot analysis", "format": "functional, cell-based", "details": "dose 5-20 µM, time 6-48 hrs, DDE = dose-dependent effect"}, "MDA-MB-231 [6]": {"tested_on": "MDA-MB-231", "experiment": "Inhibition of autophagic flux in human MDA-MB-231 cells assessed as increase in nuclear p62 expression measured after 48 hrs by immunofluorescence analysis", "format": "functional, cell-based", "details": "dose 5-20 µM, DDE = dose-dependent effect"}, "MDA-MB-468 [7]": {"tested_on": "MDA-MB-468", "experiment": "Inhibition of autophagic flux in human MDA-MB-468 cells assessed as increase in nuclear p62 expression measured after 48 hrs by Western blot analysis", "format": "functional, cell-based", "details": "dose 5-20 µM, DDE = dose-dependent effect"}, "MDA-MB-468 [8]": {"tested_on": "MDA-MB-468", "experiment": "Inhibition of autophagic flux in human MDA-MB-468 cells assessed as reduction in RNF8 expression at 5 to 20 uM measured after 6 to 48 hrs by Western blot analysis", "format": "functional, cell-based", "details": "dose 5-20 µM, time 6-48 hrs"}, "MDA-MB-231 [9]": {"tested_on": "MDA-MB-231", "experiment": "Cell cycle arrest in human MDA-MB-231 cells assessed as increase in accumulation at S-phase at 5 to 20 uM measured after 48 hrs by propidium iodide staining based flow cytometry", "format": "functional", "details": "dose 5-20 µM"}, "MDA-MB-231 [10]": {"tested_on": "MDA-MB-231", "experiment": "Cell cycle arrest in human MDA-MB-231 cells assessed as reduction in cyclin B expression measured after 48 hrs by Western blot analysis", "format": "functional, cell-based", "details": "dose 5-20 µM, DDE = dose-dependent effect"}, "MDA-MB-231 [11]": {"tested_on": "MDA-MB-231", "experiment": "Cell cycle arrest in human MDA-MB-231 cells assessed as reduction in CDK1 expression measured after 48 hrs by Western blot analysis", "format": "functional, cell-based", "details": "dose 5-20 µM, DDE = dose-dependent effect"}, "MDA-MB-231 [12]": {"tested_on": "MDA-MB-231", "experiment": "Induction of apoptosis in human MDA-MB-231 cells assessed as increase in late apoptotic cells measured after 48 hrs by Annexin V-FITC/propidium iodide staining based flow cytometry", "format": "functional, cell-based", "details": "dose 5-20 µM, DDE = dose-dependent effect"}, "MDA-MB-231 [13]": {"tested_on": "MDA-MB-231", "experiment": "Induction of apoptosis in human MDA-MB-231 cells assessed as increase in Bak expression measured after 48 hrs by Western blot analysis", "format": "functional, cell-based", "details": "dose 5-20 µM, DDE = dose-dependent effect"}, "MDA-MB-468 [14]": {"tested_on": "MDA-MB-468", "experiment": "Induction of apoptosis in human MDA-MB-468 cells assessed as reduction in Bcl-2 expression measured after 48 hrs by Western blot analysis", "format": "functional, cell-based", "details": "dose 5-20 µM, DDE = dose-dependent effect"}, "MDA-MB-468 [15]": {"tested_on": "MDA-MB-468", "experiment": "Induction of apoptosis in human MDA-MB-468 cells assessed as increase in Bak expression measured after 48 hrs by Western blot analysis", "format": "functional, cell-based", "details": "dose 5-20 µM, DDE = dose-dependent effect"}, "MDA-MB-468 [16]": {"tested_on": "MDA-MB-468", "experiment": "Induction of apoptosis in human MDA-MB-468 cells assessed as increase in cleaved caspase-9 expression measured after 48 hrs by Western blot analysis", "format": "functional, cell-based", "details": "dose 5-20 µM, DDE = dose-dependent effect"}, "MDA-MB-468 [17]": {"tested_on": "MDA-MB-468", "experiment": "Induction of apoptosis in human MDA-MB-468 cells assessed as increase in cleaved PARP expression measured after 48 hrs by Western blot analysis", "format": "functional, cell-based", "details": "dose 5-20 µM, DDE = dose-dependent effect"}, "MDA-MB-231 [18]": {"tested_on": "MDA-MB-231", "experiment": "Antitumor activity against human MDA-MB-231 cells xenografted in NOD/SCID mouse assessed as reduction in Ki67 expression at 5 to 15 mg/kg, ip administered at 3 days interval for 24 days and measured on day 25 by immunohistochemical analysis", "format": "functional, organism-based", "details": "dose 5-15 mg/kg, time 25.0 day"}, "MDA-MB-231 [19]": {"tested_on": "MDA-MB-231", "experiment": "Antitumor activity against human MDA-MB-231 cells xenografted in ip dosed NOD/SCID mouse assessed as upregulation of p62 expression administered at 3 days interval for 24 days and measured on day 25 by Western blot analysis", "format": "functional, organism-based", "details": "dose 5-15 mg/kg, time 25.0 day, DDE = dose-dependent effect"}}, "note": "The source made the active and inactive calls. The calls are words filed in the database; no cut-off is given here."}
{"smiles": "O=C(NC1CCCCC1)c1[nH]cnc1-c1nc2ccccc2[nH]1", "values": [{"measurement": "IC50", "setting": "SCC-25", "result": 18.6, "unit": "µM"}, {"measurement": "IC50", "setting": "HCT-116", "result": 35.5, "unit": "µM"}, {"measurement": "IC50", "setting": "U-251", "result": 12.9, "unit": "µM"}, {"measurement": "Activity", "setting": "MDA-MB-231 [1]", "result": "Active"}, {"measurement": "inhibition", "setting": "MDA-MB-468 [2]", "result": "Dde"}, {"measurement": "Activity", "setting": "MDA-MB-231 [3]", "result": "Active"}, {"measurement": "Activity", "setting": "[4]", "result": "Active"}, {"measurement": "Activity", "setting": "MDA-MB-231 [5]", "result": "Dde"}, {"measurement": "inhibition", "setting": "MDA-MB-231 [6]", "result": "Dde"}, {"measurement": "inhibition", "setting": "MDA-MB-468 [7]", "result": "Dde"}, {"measurement": "inhibition", "setting": "MDA-MB-468 [8]", "result": "Active"}, {"measurement": "Activity", "setting": "MDA-MB-231 [9]", "result": "Active"}, {"measurement": "Activity", "setting": "MDA-MB-231 [10]", "result": "Dde"}, {"measurement": "Activity", "setting": "MDA-MB-231 [11]", "result": "Dde"}, {"measurement": "Activity", "setting": "MDA-MB-231 [12]", "result": "Dde"}, {"measurement": "Activity", "setting": "MDA-MB-231 [13]", "result": "Dde"}, {"measurement": "Activity", "setting": "MDA-MB-468 [14]", "result": "Dde"}, {"measurement": "Activity", "setting": "MDA-MB-468 [15]", "result": "Dde"}, {"measurement": "Activity", "setting": "MDA-MB-468 [16]", "result": "Dde"}, {"measurement": "Activity", "setting": "MDA-MB-468 [17]", "result": "Dde"}, {"measurement": "Activity", "setting": "MDA-MB-231 [18]", "result": "Active"}, {"measurement": "Activity", "setting": "MDA-MB-231 [19]", "result": "Dde"}]}
